Measured values published in patent US11420958B2, “Aryl and heteroaryl substituted indole compounds” (BRISTOL-MYERS SQUIBB COMPANY, priority 2017, dated 2022).

Columns and labels:
Type in all cases: cell-based
[1] = biological target: human TLR7 (Homo sapiens (Human), UniProt Q9NYK1); experiment: TLR7 inhibition reporter assay (HEK-Blue, SEAP); settings: HEK-Blue cells overexpressing human TLR7, gardiquimod 7.5 μM stimulation
Outline: (§1)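 Percent inhibition of agonist-induced SEAP secretion was scored against DMSO-only and reference-inhibitor controls. Stimulation lasted 22 h at 37 °C following 30 min compound pre-exposure (0.05 nM–50 μM); ligands were gardiquimod 7.5 μM, R848 15.9 μM and ODN2006 5 nM for TLR7, 8 and 9.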

[2] = biological target: human TLR8 (Homo sapiens (Human), UniProt Q9NR97); experiment: TLR8 inhibition reporter assay (HEK-Blue, SEAP); settings: HEK-Blue cells overexpressing human TLR8, R848 15.9 μM stimulation
Chain of human TLR8 (Q9NR97 27-1041): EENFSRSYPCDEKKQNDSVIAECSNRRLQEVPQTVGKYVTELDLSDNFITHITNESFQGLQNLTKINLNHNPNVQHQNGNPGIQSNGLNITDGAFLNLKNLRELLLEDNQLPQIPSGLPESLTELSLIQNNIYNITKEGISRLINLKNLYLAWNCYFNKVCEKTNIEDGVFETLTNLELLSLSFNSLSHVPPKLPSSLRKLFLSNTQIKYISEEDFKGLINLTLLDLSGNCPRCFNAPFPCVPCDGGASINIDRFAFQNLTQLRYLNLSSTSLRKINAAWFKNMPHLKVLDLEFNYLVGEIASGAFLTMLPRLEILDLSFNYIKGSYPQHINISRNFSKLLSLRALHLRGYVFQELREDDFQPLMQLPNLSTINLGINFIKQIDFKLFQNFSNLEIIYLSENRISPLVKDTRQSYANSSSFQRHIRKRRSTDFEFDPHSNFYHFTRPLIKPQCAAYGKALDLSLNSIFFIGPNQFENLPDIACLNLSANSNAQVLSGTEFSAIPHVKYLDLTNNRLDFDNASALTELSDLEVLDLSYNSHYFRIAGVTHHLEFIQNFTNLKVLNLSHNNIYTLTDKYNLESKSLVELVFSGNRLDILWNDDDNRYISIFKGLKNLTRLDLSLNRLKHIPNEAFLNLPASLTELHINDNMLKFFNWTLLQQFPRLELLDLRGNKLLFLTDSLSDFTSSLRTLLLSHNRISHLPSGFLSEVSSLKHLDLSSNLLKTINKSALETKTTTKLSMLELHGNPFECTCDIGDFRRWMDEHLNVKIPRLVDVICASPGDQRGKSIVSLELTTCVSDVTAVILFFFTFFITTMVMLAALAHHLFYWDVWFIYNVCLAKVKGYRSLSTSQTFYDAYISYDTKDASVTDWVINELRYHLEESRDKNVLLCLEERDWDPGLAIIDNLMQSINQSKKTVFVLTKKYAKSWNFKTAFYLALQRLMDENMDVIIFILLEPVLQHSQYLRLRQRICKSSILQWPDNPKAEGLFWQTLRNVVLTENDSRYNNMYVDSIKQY
Outline: as §1

[3] = biological target: human TLR9 (Homo sapiens (Human), UniProt Q9NR96); experiment: TLR9 inhibition reporter assay (HEK-Blue, SEAP); settings: HEK-Blue cells overexpressing human TLR9, ODN2006 5 nM stimulation
Chain of human TLR9 (Q9NR96 26-1032): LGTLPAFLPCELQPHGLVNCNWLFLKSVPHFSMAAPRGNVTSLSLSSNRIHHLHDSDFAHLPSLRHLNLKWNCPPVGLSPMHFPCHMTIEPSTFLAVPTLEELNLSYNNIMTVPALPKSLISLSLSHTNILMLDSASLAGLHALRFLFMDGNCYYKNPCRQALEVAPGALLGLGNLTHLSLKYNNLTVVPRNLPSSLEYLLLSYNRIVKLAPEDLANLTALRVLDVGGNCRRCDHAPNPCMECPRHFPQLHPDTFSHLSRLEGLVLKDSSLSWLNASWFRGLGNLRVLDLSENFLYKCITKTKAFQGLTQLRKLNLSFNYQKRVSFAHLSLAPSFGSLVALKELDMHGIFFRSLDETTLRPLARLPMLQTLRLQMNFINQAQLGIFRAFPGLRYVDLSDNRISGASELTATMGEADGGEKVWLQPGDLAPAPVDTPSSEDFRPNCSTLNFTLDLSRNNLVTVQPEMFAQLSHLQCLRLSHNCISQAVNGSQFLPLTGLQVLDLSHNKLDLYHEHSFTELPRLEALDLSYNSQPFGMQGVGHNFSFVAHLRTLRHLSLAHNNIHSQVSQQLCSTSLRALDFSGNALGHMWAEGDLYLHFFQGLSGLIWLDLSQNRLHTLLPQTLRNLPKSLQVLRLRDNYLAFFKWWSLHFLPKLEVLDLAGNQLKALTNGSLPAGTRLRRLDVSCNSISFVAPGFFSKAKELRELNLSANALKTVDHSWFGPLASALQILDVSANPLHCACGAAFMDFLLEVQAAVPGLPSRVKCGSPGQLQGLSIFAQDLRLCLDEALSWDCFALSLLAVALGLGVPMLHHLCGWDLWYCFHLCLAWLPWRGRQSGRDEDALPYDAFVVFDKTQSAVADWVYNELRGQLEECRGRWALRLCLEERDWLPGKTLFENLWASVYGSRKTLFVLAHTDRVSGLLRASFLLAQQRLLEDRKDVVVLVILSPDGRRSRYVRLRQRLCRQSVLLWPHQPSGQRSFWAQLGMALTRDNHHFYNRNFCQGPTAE
Outline: as §1

Chain of human TLR7 (Q9NYK1 27-1049): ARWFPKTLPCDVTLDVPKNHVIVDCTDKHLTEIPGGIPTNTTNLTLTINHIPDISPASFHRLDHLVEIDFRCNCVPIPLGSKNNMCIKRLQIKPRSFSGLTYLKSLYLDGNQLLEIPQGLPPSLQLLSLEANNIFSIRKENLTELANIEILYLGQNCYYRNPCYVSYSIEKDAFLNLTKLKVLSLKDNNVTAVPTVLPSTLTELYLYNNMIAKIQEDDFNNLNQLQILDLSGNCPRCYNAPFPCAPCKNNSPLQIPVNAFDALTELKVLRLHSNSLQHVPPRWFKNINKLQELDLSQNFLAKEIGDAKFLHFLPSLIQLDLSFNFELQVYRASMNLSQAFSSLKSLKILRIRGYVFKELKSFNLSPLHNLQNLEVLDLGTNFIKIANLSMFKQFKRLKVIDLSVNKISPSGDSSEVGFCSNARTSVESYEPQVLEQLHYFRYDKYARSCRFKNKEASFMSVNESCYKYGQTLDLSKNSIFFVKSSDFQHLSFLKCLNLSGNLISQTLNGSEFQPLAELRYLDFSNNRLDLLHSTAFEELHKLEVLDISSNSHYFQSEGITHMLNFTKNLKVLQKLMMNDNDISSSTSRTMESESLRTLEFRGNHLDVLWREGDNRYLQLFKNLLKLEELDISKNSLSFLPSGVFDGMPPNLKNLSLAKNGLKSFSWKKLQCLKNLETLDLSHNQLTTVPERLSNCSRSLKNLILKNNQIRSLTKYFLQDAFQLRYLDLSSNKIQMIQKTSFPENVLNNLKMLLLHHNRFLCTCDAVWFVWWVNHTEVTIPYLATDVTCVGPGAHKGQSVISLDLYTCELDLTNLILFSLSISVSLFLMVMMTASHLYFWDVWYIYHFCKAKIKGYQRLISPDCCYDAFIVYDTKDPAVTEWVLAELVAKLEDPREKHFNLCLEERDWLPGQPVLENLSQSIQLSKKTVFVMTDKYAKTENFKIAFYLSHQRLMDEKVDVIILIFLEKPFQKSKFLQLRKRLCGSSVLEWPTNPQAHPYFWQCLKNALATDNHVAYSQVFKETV

| SMILES | IC50 [1] [nM] | IC50 [2] [nM] | IC50 [3] [nM] |
| --- | --- | --- | --- |
| CNCCN1CCn2nc(-c3ccc4[nH]c(-c5ccnc(C)c5)c(C(C)C)c4c3)c(C(N)=O)c2C1 [Example 218, 2-(3-isopropyl-2-(2-methylpyridin-4-yl)-1H-indol-5-yl)-5-(2-(methylamino)ethyl)-4,5,6,7-tetrahydropyrazolo[1,5-a]pyrazine-3-carboxamide] | 496 | 93 | 1940 |
| CNCCN1CCn2nc(-c3ccc4[nH]c(-c5ccnc(C)c5)c(C(C)C)c4c3)c(C(=O)NC)c2C1 [Example 219, 2-(3-isopropyl-2-(2-methylpyridin-4-yl)-1H-indol-5-yl)-N-methyl-5-(2-(methylamino)ethyl)-4,5,6,7-tetrahydropyrazolo[1,5-a]pyrazine-3-carboxamide] | 163 | 147 | 2600 |
| CC(C)c1c(-c2ccnc3[nH]ncc23)[nH]c2ccc(-c3nnc(C4CN5CCC4CC5)o3)cc12 (stereo not drawn) [Example 220, 2-(3-isopropyl-2-(1H-pyrazolo[3,4-b]pyridin-4-yl)-1H-indol-5-yl)-5-(quinuclidin-3-yl)-1,3,4-oxadiazole] | 76 | 12 | 238 |
| Cc1cc(-c2[nH]c3ccc(-c4nnc(C(=O)NC5CCN(C(C)C)CC5)o4)cc3c2C(C)C)cc(C)n1 [Example 221, 5-(2-(2,6-dimethylpyridin-4-yl)-3-isopropyl-1H-indol-5-yl)-N-(1-isopropylpiperidin-4-yl)-1,3,4-oxadiazole-2-carboxamide] | 15 | 2.5 | 515 |
| Cc1cc(-c2[nH]c3ccc(-c4nnc(C5CN6CCC5CC6)o4)cc3c2C(C)C)ccn1 (stereo not drawn) [Example 222, 2-(3-isopropyl-2-(2-methylpyridin-4-yl)-1H-indol-5-yl)-5-(quinuclidin-3-yl)-1,3,4-oxadiazole] | 34 | 3.2 | 1240 |
| Cc1cc(-c2[nH]c3ccc(-c4nnc(C(=O)NCCN(C)C)o4)cc3c2C(C)C)cc(C)n1 [Example 223, N-(2-(dimethylamino)ethyl)-5-(2-(2,6-dimethylpyridin-4-yl)-3-isopropyl-1H-indol-5-yl)-1,3,4-oxadiazole-2-carboxamide] | 6.6 | 1 | 138 |
| Cc1cc(-c2[nH]c3ccc(-c4nnc(C(=O)NCCCN(C)C)o4)cc3c2C(C)C)cc(C)n1 [Example 224, N-(3-(dimethylamino)propyl)-5-(2-(2,6-dimethylpyridin-4-yl)-3-isopropyl-1H-indol-5-yl)-1,3,4-oxadiazole-2-carboxamide] | 11 | 2.5 | 229 |
| Cc1cc(-c2[nH]c3ccc(-c4cc5c(s4)CNCC5)cc3c2C(C)C)ccn1 [Example 225, 2-(3-isopropyl-2-(2-methylpyridin-4-yl)-1H-indol-5-yl)-4,5,6,7-tetrahydrothieno[2,3-c]pyridine] | 16 | 1 | 623 |
| CNCCc1nnc(-c2ccc3[nH]c(-c4ccc5ncnn5c4)c(C(C)C)c3c2)o1 [Example 226, 2-(5-(2-([1,2,4]triazolo[1,5-a]pyridin-6-yl)-3-isopropyl-1H-indol-5-yl)-1,3,4-oxadiazol-2-yl)-N-methylethan-1-amine] | 46 | 5.5 | 1080 |
| CC(C)c1c(-c2ccc3ncnn3c2)[nH]c2ccc(-c3nnc([C@@H]4CCCNC4)o3)cc12 [Example 227, (R)-2-(2-([1,2,4]triazolo[1,5-a]pyridin-6-yl)-3-isopropyl-1H-indol-5-yl)-5-(piperidin-3-yl)-1,3,4-oxadiazole] | 61 | 9.4 | 892 |
| Cc1cc(-c2[nH]c3ccc(-c4cc5c(s4)CN(C(C)C)CC5)cc3c2C(C)C)ccn1 [Example 228, 6-isopropyl-2-(3-isopropyl-2-(2-methylpyridin-4-yl)-1H-indol-5-yl)-4,5,6,7-tetrahydrothieno[2,3-c]pyridine] | 50 | 0.9 | 652 |
| CC(C)c1c(-c2ccnc3[nH]ncc23)[nH]c2ccc(-c3cc4c(s3)CNCC4)cc12 [Example 229, 2-(3-isopropyl-2-(1H-pyrazolo[3,4-b]pyridin-4-yl)-1H-indol-5-yl)-4,5,6,7-tetrahydrothieno[2,3-c]pyridine] | 32 | 1.5 | 961 |
| Cc1cc(-c2[nH]c3ccc(-c4nnc(C(=O)N5CCC(N)CC5)o4)cc3c2C(C)C)cc(C)n1 [Example 230, (4-aminopiperidin-1-yl)(5-(2-(2,6-dimethylpyridin-4-yl)-3-isopropyl-1H-indol-5-yl)-1,3,4-oxadiazol-2-yl)methanone] | 19 | 9.3 | 343 |
| Cc1cc(-c2[nH]c3ccc(-c4nnc(C5CN6CCC5CC6)o4)cc3c2C(C)C)ccn1 (stereo not drawn) [Example 231, 2-(3-isopropyl-2-(2-methylpyridin-4-yl)-1H-indol-5-yl)-5-(quinuclidin-3-yl)-1,3,4-oxadiazole] | 69 | 5.9 | 895 |
| Cc1cc(-c2[nH]c3ccc(-c4nnc([C@@H]5CCCNC5)o4)cc3c2C(C)C)cc(C)n1 [Example 232, (R)-2-(2-(2,6-dimethylpyridin-4-yl)-3-isopropyl-1H-indol-5-yl)-5-(piperidin-3-yl)-1,3,4-oxadiazole] | 11 | 3.2 | 950 |
| CC(C)c1c(-c2ccnc3[nH]ncc23)[nH]c2ccc(-c3nc(C(=O)N4CCCN(C)CC4)co3)cc12 [Example 233, (2-(3-isopropyl-2-(1H-pyrazolo[3,4-b]pyridin-4-yl)-1H-indol-5-yl)oxazol-4-yl)(4-methyl-1,4-diazepan-1-yl)methanone] | 195 | 2.5 | 2080 |
| CC(C)c1c(-c2ccnc3[nH]ncc23)[nH]c2ccc(-c3nc(C(=O)NCCN(C)C)co3)cc12 [Example 234, N-(2-(dimethylamino)ethyl)-2-(3-isopropyl-2-(1H-pyrazolo[3,4-b]pyridin-4-yl)-1H-indol-5-yl)oxazole-4-carboxamide] | 229 | 4.5 | 366 |
| Cc1cc(-c2[nH]c3ccc(-c4ccc(Cl)nc4)cc3c2C(C)C)ccn1 [Example 235, 5-(6-chloropyridin-3-yl)-3-isopropyl-2-(2-methylpyridin-4-yl)-1H-indole] | 667 | 301 | > 50000 |
| Cc1cc(-c2[nH]c3ccc(-c4ccc(N)nc4)cc3c2C(C)C)cc(C)n1 [Example 236, 5-(2-(2,6-dimethylpyridin-4-yl)-3-isopropyl-1H-indol-5-yl)pyridin-2-amine] | 13 | 2.7 | 655 |
| Cc1cc(-c2[nH]c3ccc(-c4ccc(N)nc4)cc3c2C(C)C)ccn1 [Example 237, 5-(3-isopropyl-2-(2-methylpyridin-4-yl)-1H-indol-5-yl)pyridin-2-amine] | 30 | 2 | 9730 |
| Cc1cc(-c2[nH]c3ccc(-c4ccc(NC(=O)CN(C)C)nc4)cc3c2C(C)C)cc(C)n1 [Example 238, 2-(dimethylamino)-N-(5-(2-(2,6-dimethylpyridin-4-yl)-3-isopropyl-1H-indol-5-yl)pyridin-2-yl)acetamide] | 9.7 | 2.7 | 451 |
